Measured values: patent US10689362B2, “Quinoxaline compounds as type III receptor tyrosine kinase inhibitors” (Development Center for Biotechnology, priority 2016, dated 2020)
pIC50: −log10 of the molar value.

What was measured:
[1] = tested on: Kasumi-1 human acute myeloid leukemia cell with c-KIT N822K activating mutation; test: Kasumi-1 cell proliferation assay (CellTiter-96); format: cell-based; settings: Cytotoxicity, Kasumi-1 cells, 72 hours
Outline: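 After 72 h of treatment with a compound dilution series, growth of c-KIT N822K-driven Kasumi-1 cells (64000 per well, plated the day before) was read as 490 nm absorbance. This followed a 4 h incubation with CellTiter96 AQueous One reagent.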

[2] = tested on: osteoclast precursors (osteoclast differentiation); test: Osteoclast tartrate-resistant acid phosphatase assay; format: cell-based; settings: 168 h, at 1 μM treatment, 7 days, RANKL and M-CSF, read-out: inhibition activity against osteoclast differentiation
Outline: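 Differentiation inhibition was scored at 1 μM compound in duplicate, using supernatant TRAP activity read at 550 nm with an acid phosphatase kit.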

[3] = tested on: MV4-11 human acute myeloid leukemia cell with FLT3-ITD mutation; test: MV4-11 cell proliferation assay (CellTiter-96); format: cell-based; settings: Cytotoxicity, MV4-11 cells, 72 hours
Outline: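 Growth inhibition read as absorbance at 490 nm after 4 hours with CellTiter96 AQueous One reagent. Before that, FLT3-ITD-dependent MV4-11 cells (6500 cells/well, overnight at 37° C., 5% CO2) received a rising compound concentration series for 72 hours.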

PDGFRβ kinase = PDGFRβ kinase (Homo sapiens (Human), UniProt P09619); test: PDGFRβ kinase assay (radiometric); format: biochemical
Chain of PDGFRβ kinase (P09619 33-1106): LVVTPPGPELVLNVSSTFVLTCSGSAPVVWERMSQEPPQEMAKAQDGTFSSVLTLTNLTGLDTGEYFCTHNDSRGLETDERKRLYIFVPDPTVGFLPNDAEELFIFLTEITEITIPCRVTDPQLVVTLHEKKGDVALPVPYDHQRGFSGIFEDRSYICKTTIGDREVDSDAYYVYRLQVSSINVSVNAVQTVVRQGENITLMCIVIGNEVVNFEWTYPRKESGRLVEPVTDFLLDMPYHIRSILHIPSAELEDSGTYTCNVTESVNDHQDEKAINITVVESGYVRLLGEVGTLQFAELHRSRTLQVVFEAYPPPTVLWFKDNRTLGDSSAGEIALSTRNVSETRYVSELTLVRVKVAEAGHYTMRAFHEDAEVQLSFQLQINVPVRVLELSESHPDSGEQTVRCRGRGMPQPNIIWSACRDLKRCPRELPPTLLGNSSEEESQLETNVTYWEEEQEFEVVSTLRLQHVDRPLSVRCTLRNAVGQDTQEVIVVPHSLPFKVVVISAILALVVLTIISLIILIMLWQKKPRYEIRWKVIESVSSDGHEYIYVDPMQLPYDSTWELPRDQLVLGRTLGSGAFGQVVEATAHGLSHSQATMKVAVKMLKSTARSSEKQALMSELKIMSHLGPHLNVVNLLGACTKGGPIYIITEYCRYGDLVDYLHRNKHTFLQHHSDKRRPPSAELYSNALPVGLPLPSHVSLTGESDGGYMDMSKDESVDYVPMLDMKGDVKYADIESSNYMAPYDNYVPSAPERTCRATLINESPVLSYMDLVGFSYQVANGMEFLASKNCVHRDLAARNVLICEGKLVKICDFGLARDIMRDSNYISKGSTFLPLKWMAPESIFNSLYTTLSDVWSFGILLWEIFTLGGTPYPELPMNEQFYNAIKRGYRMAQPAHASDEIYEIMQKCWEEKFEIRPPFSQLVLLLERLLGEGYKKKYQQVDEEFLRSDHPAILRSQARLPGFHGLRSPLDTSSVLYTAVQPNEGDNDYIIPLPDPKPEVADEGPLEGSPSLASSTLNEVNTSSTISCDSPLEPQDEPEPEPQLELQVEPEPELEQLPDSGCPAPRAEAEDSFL
Outline: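 Radiometric assay: recombinant PDGFRβ with poly(Glu4:Tyr1) in MOPS pH 7.0 buffer containing Mg2+/Mn2+, 10 μM ATP plus [33P]-ATP, and compound at 4% DMSO final. Incubated 60 min at 30° C, stopped with phosphoric acid, filter-captured and scintillation-counted. IC50 from curve fitting.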

c-KIT kinase = c-KIT kinase (Homo sapiens (Human), UniProt P10721); test: c-KIT kinase assay (radiometric); format: biochemical; settings: class symbol
Chain of c-KIT kinase (P10721 26-976): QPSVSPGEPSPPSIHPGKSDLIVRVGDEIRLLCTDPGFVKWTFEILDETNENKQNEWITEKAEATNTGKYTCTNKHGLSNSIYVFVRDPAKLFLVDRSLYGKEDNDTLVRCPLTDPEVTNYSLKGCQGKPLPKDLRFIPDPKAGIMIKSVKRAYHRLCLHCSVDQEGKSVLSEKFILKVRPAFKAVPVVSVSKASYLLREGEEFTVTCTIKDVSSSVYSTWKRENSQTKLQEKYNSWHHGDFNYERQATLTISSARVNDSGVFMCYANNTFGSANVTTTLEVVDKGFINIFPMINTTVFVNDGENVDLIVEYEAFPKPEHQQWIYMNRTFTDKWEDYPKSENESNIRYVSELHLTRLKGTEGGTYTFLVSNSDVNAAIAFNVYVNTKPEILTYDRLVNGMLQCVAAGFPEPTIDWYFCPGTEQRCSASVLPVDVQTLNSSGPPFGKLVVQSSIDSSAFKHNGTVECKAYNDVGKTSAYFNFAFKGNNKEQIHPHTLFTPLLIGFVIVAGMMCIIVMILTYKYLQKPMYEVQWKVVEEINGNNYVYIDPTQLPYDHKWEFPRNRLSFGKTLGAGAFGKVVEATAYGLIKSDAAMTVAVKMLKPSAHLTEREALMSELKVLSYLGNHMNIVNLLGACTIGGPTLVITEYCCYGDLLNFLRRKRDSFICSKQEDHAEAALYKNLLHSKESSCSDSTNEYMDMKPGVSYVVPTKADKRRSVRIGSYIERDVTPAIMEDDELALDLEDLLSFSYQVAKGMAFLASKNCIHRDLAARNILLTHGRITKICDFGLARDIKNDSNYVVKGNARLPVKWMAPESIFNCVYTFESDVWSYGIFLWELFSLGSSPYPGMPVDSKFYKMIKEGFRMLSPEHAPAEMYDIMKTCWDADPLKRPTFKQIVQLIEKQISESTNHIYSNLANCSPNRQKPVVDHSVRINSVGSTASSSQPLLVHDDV
Outline: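 Recombinant c-Kit (20 ng) with 2 μg Poly-(Glu4:Tyr1) in MOPS pH 7.0 buffer with MgCl2/MnCl2, 10 μM ATP plus [^33P]-ATP, 4% DMSO final, 60 min at 30° C. Stopped with phosphoric acid, filter-captured and scintillation counted; IC50 from curve fit.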

[4] = tested on: CSF-1-dependent M-NFS-60 mouse myeloid leukemia cell; test: M-NFS-60 cell proliferation assay (CellTiter-96); format: cell-based; settings: Cytotoxicity, M-NFS-60 cells, 72 hours
Outline: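 Growth inhibition was measured as absorbance at 490 nm after 4 h with CellTiter 96 AQueous One reagent. Beforehand, M-NFS-60 cells (2000/well, CSF-1-dependent) were treated with a compound dilution series for 72 h following overnight plating at 37 °C, 5% CO2.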

[5] = tested on: THP-1 human acute monocytic leukemia cell harboring NRAS G12D mutation; test: THP-1 cell proliferation assay (counter screen, CellTiter-96); format: cell-based; settings: Cytotoxicity, THP-1 cells (counter screen), 72 hours
Outline: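 Growth inhibition read as 490 nm absorbance after 4 h with CellTiter96 AQueous One reagent, following 72 h compound exposure at rising concentrations. THP-1 (NRAS G12D) cells plated at 5000 per well and left overnight at 37 °C, 5% CO2 before dosing.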

FLT3 kinase = FLT3 kinase (Homo sapiens (Human), UniProt P36888); test: FLT3 kinase assay (radiometric); format: biochemical; settings: bound
Chain of FLT3 kinase (P36888 27-993): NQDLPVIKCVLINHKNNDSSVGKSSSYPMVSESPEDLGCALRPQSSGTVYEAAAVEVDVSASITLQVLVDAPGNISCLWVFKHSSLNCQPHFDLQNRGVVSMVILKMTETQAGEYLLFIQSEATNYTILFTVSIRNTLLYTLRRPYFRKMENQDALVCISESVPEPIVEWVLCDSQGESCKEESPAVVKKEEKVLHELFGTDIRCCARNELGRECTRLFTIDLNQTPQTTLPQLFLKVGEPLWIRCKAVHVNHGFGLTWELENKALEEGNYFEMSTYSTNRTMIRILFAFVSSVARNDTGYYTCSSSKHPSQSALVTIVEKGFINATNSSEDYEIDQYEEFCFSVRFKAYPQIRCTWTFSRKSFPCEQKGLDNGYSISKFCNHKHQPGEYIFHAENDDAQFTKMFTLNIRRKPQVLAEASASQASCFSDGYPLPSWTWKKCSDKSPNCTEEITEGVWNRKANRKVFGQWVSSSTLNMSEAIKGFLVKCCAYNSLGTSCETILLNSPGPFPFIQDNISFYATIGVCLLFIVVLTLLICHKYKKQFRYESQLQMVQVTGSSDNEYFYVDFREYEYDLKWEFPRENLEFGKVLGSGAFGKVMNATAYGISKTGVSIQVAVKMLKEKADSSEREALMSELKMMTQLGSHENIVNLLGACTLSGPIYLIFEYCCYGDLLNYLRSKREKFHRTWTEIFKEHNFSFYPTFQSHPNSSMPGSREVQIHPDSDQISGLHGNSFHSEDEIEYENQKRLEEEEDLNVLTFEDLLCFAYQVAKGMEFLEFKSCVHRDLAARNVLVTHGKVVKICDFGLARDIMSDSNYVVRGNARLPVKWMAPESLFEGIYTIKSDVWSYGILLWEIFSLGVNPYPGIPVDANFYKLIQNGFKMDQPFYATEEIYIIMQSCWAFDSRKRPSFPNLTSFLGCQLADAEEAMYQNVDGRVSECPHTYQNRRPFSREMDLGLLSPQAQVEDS
Outline: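 Recombinant FLT3 (5 ng) phosphorylating poly(Glu4:Tyr1) (2 μg) with 10 μM ATP plus [^33P]-ATP in MOPS pH 7.0 buffer, 4% DMSO final, 60 min at 30° C. Reaction stopped with phosphoric acid, filter-captured and scintillation-counted; IC50 derived from dose-response.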

CSF-1R kinase = CSF-1R kinase (Homo sapiens (Human), UniProt P07333); test: CSF-1R kinase assay (AlphaScreen); format: biochemical; settings: class symbol
Chain of CSF-1R kinase (P07333 20-972): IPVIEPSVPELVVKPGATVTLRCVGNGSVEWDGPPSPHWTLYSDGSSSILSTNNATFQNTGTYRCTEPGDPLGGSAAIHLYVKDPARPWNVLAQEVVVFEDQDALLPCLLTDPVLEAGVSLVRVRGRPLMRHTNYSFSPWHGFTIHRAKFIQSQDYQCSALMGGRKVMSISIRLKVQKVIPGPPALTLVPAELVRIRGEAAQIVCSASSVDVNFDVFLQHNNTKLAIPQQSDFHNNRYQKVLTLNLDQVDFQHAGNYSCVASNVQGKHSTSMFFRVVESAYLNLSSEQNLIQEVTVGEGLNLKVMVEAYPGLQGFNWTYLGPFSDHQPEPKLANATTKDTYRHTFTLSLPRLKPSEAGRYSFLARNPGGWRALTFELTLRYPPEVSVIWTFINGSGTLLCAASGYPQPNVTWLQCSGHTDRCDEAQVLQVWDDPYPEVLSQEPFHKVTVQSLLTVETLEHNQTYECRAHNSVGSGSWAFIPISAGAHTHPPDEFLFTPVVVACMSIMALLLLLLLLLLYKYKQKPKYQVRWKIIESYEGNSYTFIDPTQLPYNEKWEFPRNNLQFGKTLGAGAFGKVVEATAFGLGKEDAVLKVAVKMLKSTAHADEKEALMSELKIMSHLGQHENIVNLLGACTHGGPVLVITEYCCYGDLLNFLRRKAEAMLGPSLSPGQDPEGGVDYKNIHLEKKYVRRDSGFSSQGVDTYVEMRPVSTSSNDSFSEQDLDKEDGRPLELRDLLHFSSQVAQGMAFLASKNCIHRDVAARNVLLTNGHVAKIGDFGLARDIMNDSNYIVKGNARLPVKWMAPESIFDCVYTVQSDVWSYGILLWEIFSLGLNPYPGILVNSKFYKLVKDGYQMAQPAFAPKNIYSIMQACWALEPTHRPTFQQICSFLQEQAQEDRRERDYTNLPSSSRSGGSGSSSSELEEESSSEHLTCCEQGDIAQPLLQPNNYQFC
Description: Inhibition of CSF-1R kinase activity by a test compound disclosed herein was estimated by AlphaScreen (PerkinElmer). […] Reactions were incubated at 30° C. for 45 min and stopped by adding 5 μL of 50 mM EDTA. Analysis of resulting product using an AlphaScreen kit, and counted with Enspire Alpha (PerkinElmer). […] The IC50 values of quinoxaline compounds of this invention against CSF-1R kinase were determined using the GraphPad Prism 5 software.

Row | pIC50 (PDGFRβ kinase; bound) | pIC50 (c-KIT kinase) | pIC50 (FLT3 kinase) | pIC50 (CSF-1R kinase) | pIC50 (PDGFRβ kinase; class symbol) | Structure (SMILES) | pIC50 [1] | inhibition at 1 µM [2] [%] | pIC50 [3] | pIC50 [4] | pIC50 [5]
1 | < 6.00 | 6.52 to 7.00 | < 6.00 | > 7.00 | – | COc1cc(Nc2ccc3ncc(N4CCOCC4)nc3c2C#N)ccc1OCc1cccc(F)c1 [Example 91, 6-((4-((3-fluorobenzyl)oxy)-3-methoxyphenyl)amino)-3-morpholinoquinoxaline-5-carbonitrile] | 5.00 to 6.00 | > 50 | 5.00 to 6.00 | 6.00 to 6.52 | < 5.00
2 | < 6.00 | 6.52 to 7.00 | < 6.00 | > 7.00 | – | COCCN1CCN(c2cnc3ccc(Nc4ccc(OCc5ccc(C)nc5)c(OC)c4)c(C#N)c3n2)CC1 [Example 100, 6-((3-methoxy-4-((6-methylpyridin-3-yl)methoxy)phenyl)amino)-3-(4-(2-methoxyethyl)piperazin-1-yl)quinoxaline-5-carbonitrile] | 6.00 to 6.52 | > 50 | 5.00 to 6.00 | > 6.52 | < 5.00
3 | < 6.00 | 6.00 to 6.52 | < 6.00 | > 7.00 | – | C=C(C)c1cnc2ccc(Nc3ccc(OCc4ccc(OC)cc4)c(OC)c3)cc2n1 [Example 106, N-(3-methoxy-4-((4-methoxybenzyl)oxy)phenyl)-3-(prop-1-en-2-yl)quinoxalin-6-amine] | 5.00 to 6.00 | > 50 | < 5.00 | 6.00 to 6.52 | < 5.00
4 | < 6.00 | 6.00 to 6.52 | < 6.00 | > 7.00 | – | COc1cc(Nc2ccc3ncc(N4CCOCC4)nc3c2C#N)cnc1OCc1ccc(C)nc1 [Example 143, 6-((5-methoxy-6-((6-methylpyridin-3-yl)methoxy)pyridin-3-yl)amino)-3-morpholinoquinoxaline-5-carbonitrile] | < 5.00 | > 50 | 5.00 to 6.00 | > 6.52 | < 5.00

The next lines start with the compound.

Row | Structure (SMILES) | pIC50 (PDGFRβ kinase; bound) | pIC50 (c-KIT kinase) | pIC50 (FLT3 kinase) | pIC50 (CSF-1R kinase) | pIC50 (PDGFRβ kinase; class symbol) | pIC50 [1] | inhibition at 1 µM [2] [%] | pIC50 [3] | pIC50 [4] | pIC50 [5]
5 | CNc1cnc2ccc(Nc3ccc(OCc4ccc(OC)cc4)c(OC)c3)cc2n1 [Example 25, N^7-(3-methoxy-4-((4-methoxybenzyl)oxy)phenyl)-N^2-methylquinoxaline-2,7-diamine] | < 6.00 | > 7.00 | < 6.00 | > 7.00 | – | 6.00 to 6.52 | > 50 | 5.00 to 6.00 | > 6.52 | 5.00 to 6.00
6 | COc1ccc(COc2ccc(Nc3ccc4ncc(NCCN5CCOCC5)nc4c3C#N)cc2OC)cc1 [Example 76, 6-((3-methoxy-4-((4-methoxybenzyl)oxy)phenyl)amino)-3-((2-morpholinoethyl)amino)quinoxaline-5-carbonitrile] | < 6.00 | 6.00 to 6.52 | < 6.00 | > 7.00 | – | 5.00 to 6.00 | > 50 | 5.00 to 6.00 | > 6.52 | < 5.00
7 | COc1cc(Nc2ccc3ncc(N4CCOCC4)nc3c2C#N)ccc1OCc1ccc(OC(F)(F)F)cc1 [Example 32, 6-((3-methoxy-4-((4-(trifluoromethoxy)benzyl)oxy)phenyl)amino)-3-morpholinoquinoxaline-5-carbonitrile] | – | > 7.00 | < 6.00 | > 7.00 | 6.52 to 7.00 | 6.00 to 6.52 | > 50 | 5.00 to 6.00 | > 6.52 | < 5.00
